Test results taken from US20240361338A1, “DIAGNOSIS AND TREATMENT OF ECTOPIC ENDOMETRIOSIS” (FERRING B.V., priority 2021, published 2024).

How the values were obtained:
[1] = tested on: HUVECs; experiment: BrdU cell proliferation assay on HUVECs; assay type: cell-based, human; conditions: after 24 hours of quinagolide treatment, 10^-5 and 10^-7 M
Protocol: FIG. 3: Quinagolide effect on EMSCs apoptosis and proliferation. A: Quinagolide concentration-response curve on ectopic EMSCs in both apoptosis (N=1) and proliferation (N=2) assays. B: Effect of two selected quinagolide doses (10^−5 and 10^−7M) on HUVECs (N=1) and ectopic E-MSCs (N=3) apoptosis and proliferation assays (N=2). Data are represented as mean±SD of the indicated number of experiments and normalized to untreated cells (Control). Cells were plated in growth medium at a concentration of 2,500 HUVECs/well and 3,000 E-MSCs/well in a 96-multiwell plate. The day after quinagolide was added to the growth medium at different concentrations after 24 hours. Deoxyribonucleic acid synthesis was detected as incorporation of 5-bromo-2-deoxyuridine (BrdU) into the cellular DNA after 48 hours from cell plaiting, using an enzyme-linked assay kit (Chemicon). Untreated cells were used as control. Data are expressed as the mean±standard deviation (SD) of the media of absorbance of at least three different experiments and normalized to control.

[2] = tested on: ectopic E-MSCs; experiment: Endothelial differentiation (CD31) of ectopic E-MSCs in co-culture with HUVECs; assay type: cell-based, human; conditions: ectopic E-MSCs, 100 nM, 24-h treatment, 48 h co-culture with HUVECs
Protocol: FIG. 5: Quinagolide effect on EMSCs endothelial differentiation. A. FACS gating-strategy for the analysis of CD31^+ EMSCs after direct 48 h co-culture with HUVECs. EMSCs are gated as GFP negative population, and CD31 expression is evaluated on the described gated EMSCs after 48 h co-culture with HUVECs as percentage of CD31 APC positive events. B, C and D: Representative flow cytometry micrographs and quantification, expressed as percentage of variation respect to control co-culture, of the effect of 24 h treatment of EMSCs with 25 μM cabergoline, 1 μM sorafenib, 1 μM cabozantinib (B), 100 nM quinagolide (C) and the combination of 5 μM spiperone and 100 nM quinagolide (D) on EMSCs CD31 expression after 48 h of co-culture with HUVECs. Data are represented as mean±SD of at least three independent experiments, performed on different ectopic EMSC lines, and normalized to untreated co-culture. One-way ANova was performed: *=p<0.05 and ***=p<0.001 vs control.
(BSA)-Phosphate Buffered Saline (PBS) (Sigma). For each staining, 100,000 cells were incubated for 20 minutes at 4° C. with FITC, APC or PE-conjugated antibodies against: CD29, CD44, CD73, CD90 (BD Bioscences, Franklin Lakes, NJ, USA); CD31, CD34, CD105, CD140b, CD146, TEK receptor tyrosine kinase (Tie2), Sushi domain-containing protein 2 (SUSD2) (Miltenyi Biotech, Bergisch Gladbach, Germany); CD45 (AbD Serotec, Raleigh, NC, USA), or epithelial cell adhesion molecule (EPCAM) (BioLegend, San Diego, CA, USA). Labelled cells were washed by centrifugation and final pellet was resuspended in 200 μl of 0.1% BSA-PBS before cytofluorimetric analysis. Isotype (Miltenyi Biotec) was used as negative control.
Quinagolide powder (provided by Ferring Pharmaceuticals) was stored at 4° C. and resuspended in dimethylsulphoxide (DMSO) to a stock solution of 1 mM immediately before use. Spiperone powder (Sigma-Aldrich) was resuspended in water to a stock concentration of 1 mM and stored at −20° C. Cabergoline powder (Sigma-Aldrich) was dissolved in DMSO to a stock concentration of 25 mM and stored at −20° C. Sorafenib and cabozantinib (Sigma-Aldrich) were resuspended in DMSO to a final concentration of 10 mM and according to the manufacturer's instructions, and stored at −20° C. and −80° C., respectively. Quinagolide, spiperone and cabergoline were diluted 1:100 (final concentration 100 nM), 1:1000 (final concentration 5 μM) and 1:1000 (final concentration 25 μM) respectively. Quinagolide, cabergoline, sorafenib and cabozantinib and were administered for 24 hours during co-culture experiments, while spiperone was added to culture medium 1 h before quinagolide treatment. For invasion assays, E-MSCs were treated with spiperone 1 h before the cell detachment and quinagolide was added only when cells were plated on Matrigel. […]

CCCN1C[C@@H](NS(=O)(=O)N(CC)CC)C[C@@H]2Cc3c(O)cccc3C[C@H]21 [quinagolide, N,N-diethyl-N′-[(3S,4aS,10aR)-6-hydroxy-1-propyl-1,2,3,4,4a,5,10,10a-octahydrobenzo[g]quinolin-3-yl]sulfamide]
proliferation of HUVEC cells [1]: did not show alteration
percentage of CD31 expressing E-MSCs after co-culture [2]: significantly reduced
